Read-outs that look alike come from different tables or passages of the source.
What was measured:
Assay in all cases: biochemical
Design in all cases: KINOMEscan scanMAX competition binding, DNA-tagged kinases, qPCR read-out, percent control at 300 nM
AURKC = target: T1, AURKC (Homo sapiens, UniProt Q9UQB9)
T1 sequence (Q9UQB9 1-309): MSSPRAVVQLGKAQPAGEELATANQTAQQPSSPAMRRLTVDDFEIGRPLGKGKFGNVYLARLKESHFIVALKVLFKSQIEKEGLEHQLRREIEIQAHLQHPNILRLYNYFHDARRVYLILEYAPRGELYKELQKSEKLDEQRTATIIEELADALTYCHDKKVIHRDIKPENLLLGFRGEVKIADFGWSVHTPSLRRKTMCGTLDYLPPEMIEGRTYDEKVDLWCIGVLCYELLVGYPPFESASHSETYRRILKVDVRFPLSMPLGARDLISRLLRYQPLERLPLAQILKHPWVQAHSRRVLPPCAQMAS

CSNK1G3 = CSNK1G3 (Homo sapiens, UniProt Q9Y6M4)
FGFR3 = FGFR3 (Homo sapiens, UniProt P22607)
JNK1 = target: T2, JNK1 (Homo sapiens, UniProt P45983)
T2 construct: gene MAPK8

KIT(D816V) = KIT(D816V) (Homo sapiens, UniProt P10721, D816V)
LZK = target: T3, LZK (Homo sapiens, UniProt O43283)
T3 construct: gene MAP3K13
T3 sequence (O43283 1-966): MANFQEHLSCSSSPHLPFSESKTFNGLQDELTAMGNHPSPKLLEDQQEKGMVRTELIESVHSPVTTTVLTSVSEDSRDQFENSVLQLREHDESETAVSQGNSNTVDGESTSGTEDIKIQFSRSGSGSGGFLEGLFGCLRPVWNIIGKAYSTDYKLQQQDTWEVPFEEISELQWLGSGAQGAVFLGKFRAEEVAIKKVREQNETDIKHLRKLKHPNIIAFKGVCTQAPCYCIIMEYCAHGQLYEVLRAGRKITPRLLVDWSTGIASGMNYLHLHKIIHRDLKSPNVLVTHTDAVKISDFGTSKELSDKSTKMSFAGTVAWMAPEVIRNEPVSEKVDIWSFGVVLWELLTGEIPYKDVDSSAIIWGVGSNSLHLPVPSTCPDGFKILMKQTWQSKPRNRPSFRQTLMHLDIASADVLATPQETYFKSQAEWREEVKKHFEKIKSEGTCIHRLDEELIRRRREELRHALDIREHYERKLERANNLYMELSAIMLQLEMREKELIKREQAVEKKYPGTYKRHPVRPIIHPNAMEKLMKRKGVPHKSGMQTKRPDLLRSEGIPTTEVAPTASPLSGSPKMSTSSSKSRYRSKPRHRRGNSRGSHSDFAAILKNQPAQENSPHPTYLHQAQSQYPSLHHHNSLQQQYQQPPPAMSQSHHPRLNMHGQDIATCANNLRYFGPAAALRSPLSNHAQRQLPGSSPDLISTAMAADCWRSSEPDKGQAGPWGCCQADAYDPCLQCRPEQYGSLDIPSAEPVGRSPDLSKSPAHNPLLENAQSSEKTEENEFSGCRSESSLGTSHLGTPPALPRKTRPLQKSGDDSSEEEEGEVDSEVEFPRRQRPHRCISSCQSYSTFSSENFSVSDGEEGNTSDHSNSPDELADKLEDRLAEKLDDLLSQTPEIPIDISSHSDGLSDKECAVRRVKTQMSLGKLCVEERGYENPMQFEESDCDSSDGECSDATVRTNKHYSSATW

PIK3CA(E545K) = PIK3CA(E545K) (Homo sapiens, UniProt P42336, E545K)
[1] = target: T4, RSK4(Kin.Dom.2-C-terminal) (Homo sapiens, UniProt Q9UK32)
T4 construct: gene RPS6KA6; Kin.Dom.2-C-terminal

SRPK3 = SRPK3 (Homo sapiens, UniProt Q9UPE1)
TRKA = target: T5, TRKA (Homo sapiens, UniProt P04629)
T5 construct: gene NTRK1

p38-alpha = target: T6, p38-alpha (Homo sapiens, UniProt Q16539)
T6 construct: gene MAPK14

TRKB = target: T7, TRKB (Homo sapiens, UniProt Q16620)
T7 construct: gene NTRK2

[2] = read-out: Percent control / Acalabrutinib
[3] = read-out: Percent control / Ibrutinib
[4] = read-out: Percent control / Tirabrutinib
[5] = read-out: Percent control / Zanubrutinib

T7 sequence (Q16620 whole entry): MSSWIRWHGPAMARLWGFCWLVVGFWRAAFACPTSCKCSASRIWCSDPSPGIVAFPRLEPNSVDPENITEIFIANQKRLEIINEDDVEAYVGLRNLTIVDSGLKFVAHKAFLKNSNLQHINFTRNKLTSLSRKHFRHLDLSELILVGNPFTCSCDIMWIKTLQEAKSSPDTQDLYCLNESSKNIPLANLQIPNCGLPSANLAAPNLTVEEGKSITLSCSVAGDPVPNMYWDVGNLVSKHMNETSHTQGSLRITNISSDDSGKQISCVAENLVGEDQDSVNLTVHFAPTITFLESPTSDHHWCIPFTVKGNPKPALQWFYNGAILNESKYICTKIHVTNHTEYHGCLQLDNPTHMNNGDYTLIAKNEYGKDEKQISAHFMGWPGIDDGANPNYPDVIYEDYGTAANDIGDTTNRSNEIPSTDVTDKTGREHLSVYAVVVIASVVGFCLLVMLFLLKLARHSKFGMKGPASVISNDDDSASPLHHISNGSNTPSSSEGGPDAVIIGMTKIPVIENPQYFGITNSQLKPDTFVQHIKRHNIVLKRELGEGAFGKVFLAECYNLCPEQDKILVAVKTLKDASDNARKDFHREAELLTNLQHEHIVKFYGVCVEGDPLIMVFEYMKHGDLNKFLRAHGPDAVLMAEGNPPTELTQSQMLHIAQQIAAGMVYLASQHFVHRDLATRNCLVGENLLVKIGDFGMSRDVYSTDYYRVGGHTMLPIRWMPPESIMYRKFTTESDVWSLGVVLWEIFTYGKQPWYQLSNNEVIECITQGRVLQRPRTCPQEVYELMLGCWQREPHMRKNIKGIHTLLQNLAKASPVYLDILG
PIK3CA(E545K), sequence (P42336 whole entry E545K): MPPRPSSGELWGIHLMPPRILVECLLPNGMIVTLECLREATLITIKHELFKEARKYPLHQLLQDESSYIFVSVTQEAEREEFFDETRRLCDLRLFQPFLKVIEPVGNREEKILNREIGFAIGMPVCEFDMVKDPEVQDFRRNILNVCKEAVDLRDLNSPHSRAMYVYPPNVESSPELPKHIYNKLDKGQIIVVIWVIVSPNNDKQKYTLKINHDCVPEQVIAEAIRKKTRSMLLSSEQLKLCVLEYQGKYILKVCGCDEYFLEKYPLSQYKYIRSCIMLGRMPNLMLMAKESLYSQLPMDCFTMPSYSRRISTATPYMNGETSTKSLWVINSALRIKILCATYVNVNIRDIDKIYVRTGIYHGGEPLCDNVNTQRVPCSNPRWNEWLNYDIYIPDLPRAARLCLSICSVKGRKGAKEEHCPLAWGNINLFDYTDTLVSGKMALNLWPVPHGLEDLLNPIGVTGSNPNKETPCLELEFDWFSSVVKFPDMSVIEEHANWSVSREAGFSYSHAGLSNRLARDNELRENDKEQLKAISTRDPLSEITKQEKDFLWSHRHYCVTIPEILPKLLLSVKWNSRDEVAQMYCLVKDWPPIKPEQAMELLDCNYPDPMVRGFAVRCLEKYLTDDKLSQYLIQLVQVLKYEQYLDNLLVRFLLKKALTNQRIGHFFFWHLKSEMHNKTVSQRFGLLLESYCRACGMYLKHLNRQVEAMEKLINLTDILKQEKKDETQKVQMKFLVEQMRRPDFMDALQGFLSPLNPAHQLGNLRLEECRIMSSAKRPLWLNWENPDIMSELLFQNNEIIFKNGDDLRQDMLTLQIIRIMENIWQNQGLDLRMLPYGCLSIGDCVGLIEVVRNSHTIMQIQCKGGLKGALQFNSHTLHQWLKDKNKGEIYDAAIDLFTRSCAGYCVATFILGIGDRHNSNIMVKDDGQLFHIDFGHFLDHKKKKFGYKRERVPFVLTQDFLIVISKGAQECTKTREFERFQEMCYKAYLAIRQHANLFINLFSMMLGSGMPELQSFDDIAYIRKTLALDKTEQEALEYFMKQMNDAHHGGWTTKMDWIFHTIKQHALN
CSNK1G3, sequence (Q9Y6M4 whole entry): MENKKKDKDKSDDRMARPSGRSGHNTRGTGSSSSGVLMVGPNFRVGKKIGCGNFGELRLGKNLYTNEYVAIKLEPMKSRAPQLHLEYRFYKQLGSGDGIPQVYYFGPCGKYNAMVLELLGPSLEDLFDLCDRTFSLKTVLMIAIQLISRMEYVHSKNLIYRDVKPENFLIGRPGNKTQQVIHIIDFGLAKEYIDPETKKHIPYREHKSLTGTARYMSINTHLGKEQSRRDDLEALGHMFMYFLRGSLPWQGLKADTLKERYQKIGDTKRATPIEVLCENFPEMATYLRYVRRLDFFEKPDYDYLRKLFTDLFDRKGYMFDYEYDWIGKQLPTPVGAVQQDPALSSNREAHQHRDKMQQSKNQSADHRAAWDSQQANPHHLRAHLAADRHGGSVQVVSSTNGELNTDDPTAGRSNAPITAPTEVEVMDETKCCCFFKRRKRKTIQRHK
SRPK3, sequence (Q9UPE1 whole entry): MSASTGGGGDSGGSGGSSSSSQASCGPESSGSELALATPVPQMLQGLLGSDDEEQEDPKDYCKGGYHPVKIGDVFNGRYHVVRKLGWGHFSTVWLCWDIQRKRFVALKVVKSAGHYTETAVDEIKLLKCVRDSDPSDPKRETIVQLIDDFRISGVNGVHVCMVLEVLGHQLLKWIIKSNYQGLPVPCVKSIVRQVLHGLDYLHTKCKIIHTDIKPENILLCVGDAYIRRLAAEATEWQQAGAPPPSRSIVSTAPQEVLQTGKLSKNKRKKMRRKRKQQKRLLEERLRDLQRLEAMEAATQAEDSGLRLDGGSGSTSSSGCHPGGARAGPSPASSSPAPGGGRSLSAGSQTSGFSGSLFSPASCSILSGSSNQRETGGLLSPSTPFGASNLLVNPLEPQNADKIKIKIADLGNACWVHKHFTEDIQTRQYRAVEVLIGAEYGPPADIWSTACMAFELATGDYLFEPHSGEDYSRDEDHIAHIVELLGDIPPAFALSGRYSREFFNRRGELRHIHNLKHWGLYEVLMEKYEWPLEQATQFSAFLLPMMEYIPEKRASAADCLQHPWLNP
T5 sequence (P04629 whole entry): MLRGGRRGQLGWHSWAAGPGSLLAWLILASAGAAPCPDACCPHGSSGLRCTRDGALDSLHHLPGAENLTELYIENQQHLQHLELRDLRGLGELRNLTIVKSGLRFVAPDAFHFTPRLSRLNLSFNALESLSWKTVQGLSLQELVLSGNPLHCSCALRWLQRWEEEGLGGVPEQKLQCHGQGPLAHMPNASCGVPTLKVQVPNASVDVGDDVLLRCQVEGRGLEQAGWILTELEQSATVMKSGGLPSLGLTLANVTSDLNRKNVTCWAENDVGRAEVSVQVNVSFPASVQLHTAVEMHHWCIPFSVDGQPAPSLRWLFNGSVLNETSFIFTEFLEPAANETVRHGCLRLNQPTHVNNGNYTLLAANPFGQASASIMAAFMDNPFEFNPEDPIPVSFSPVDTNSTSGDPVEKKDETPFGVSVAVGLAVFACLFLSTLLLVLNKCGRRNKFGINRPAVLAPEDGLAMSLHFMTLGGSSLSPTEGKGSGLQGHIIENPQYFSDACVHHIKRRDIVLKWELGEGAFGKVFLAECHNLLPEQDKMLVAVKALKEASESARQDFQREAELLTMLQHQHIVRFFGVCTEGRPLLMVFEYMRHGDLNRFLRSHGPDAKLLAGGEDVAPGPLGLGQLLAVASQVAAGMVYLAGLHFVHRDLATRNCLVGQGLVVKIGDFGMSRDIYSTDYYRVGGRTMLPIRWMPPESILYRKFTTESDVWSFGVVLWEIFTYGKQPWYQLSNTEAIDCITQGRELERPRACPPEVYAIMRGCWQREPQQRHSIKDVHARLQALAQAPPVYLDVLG
T4 sequence (Q9UK32 whole entry): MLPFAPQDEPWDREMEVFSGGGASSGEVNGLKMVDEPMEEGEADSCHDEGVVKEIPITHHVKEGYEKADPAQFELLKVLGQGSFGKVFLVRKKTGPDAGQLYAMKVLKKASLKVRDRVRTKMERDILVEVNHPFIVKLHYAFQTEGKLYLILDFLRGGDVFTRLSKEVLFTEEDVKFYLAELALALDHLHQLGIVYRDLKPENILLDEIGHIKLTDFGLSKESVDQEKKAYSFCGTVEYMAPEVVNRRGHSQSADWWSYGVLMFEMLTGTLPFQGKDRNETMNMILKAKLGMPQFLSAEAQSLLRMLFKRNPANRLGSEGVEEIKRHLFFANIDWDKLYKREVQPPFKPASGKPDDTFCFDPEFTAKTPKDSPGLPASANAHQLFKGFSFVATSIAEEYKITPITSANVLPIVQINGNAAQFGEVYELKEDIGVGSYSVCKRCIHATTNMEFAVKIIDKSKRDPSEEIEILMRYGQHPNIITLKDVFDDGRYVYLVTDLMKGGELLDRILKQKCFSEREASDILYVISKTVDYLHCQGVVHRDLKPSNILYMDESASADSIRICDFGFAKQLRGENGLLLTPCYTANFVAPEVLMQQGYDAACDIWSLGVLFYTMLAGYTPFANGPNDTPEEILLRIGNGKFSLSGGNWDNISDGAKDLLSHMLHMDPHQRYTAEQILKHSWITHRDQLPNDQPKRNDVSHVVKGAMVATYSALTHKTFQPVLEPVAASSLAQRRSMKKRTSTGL
T6 sequence (Q16539 whole entry): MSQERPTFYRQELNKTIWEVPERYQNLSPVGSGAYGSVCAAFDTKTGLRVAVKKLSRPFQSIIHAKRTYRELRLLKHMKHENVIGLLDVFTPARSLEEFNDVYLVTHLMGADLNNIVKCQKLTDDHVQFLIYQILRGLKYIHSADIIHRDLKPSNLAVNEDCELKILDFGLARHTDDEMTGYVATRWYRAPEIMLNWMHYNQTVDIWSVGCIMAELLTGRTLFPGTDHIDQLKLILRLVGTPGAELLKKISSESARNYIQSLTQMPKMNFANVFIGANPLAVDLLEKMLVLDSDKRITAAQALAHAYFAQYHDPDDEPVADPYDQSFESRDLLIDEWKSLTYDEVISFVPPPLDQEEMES

With `CC#CC(=O)N1CCC[C@H]1c1nc(-c2ccc(C(=O)Nc3ccccn3)cc2)c2c(N)nccn12` [Acalabrutinib] the remaining binding at 0.3 µM (AURKC; [2]) was 64%, the remaining binding at 0.3 µM (CSNK1G3; [2]) was 91% and the remaining binding at 0.3 µM (FGFR3; [2]) was 95%. For the same compound, the remaining binding at 0.3 µM (JNK1; [2]) was 93%, the remaining binding at 0.3 µM (KIT(D816V); [2]) was 92% and the remaining binding at 0.3 µM (LZK; [2]) was 85%. It also gave a remaining binding at 0.3 µM (PIK3CA(E545K); [2]) of 99%, a remaining binding at 0.3 µM [1, 2] of 95% and a remaining binding at 0.3 µM (SRPK3; [2]) of 86%. The remaining binding at 0.3 µM (TRKA; [2]) was 88% and the remaining binding at 0.3 µM (p38-alpha; [2]) was 85%.

For `C=CC(=O)N1CCC[C@@H](n2nc(-c3ccc(Oc4ccccc4)cc3)c3c(N)ncnc32)C1` [Ibrutinib], the remaining binding at 0.3 µM (AURKC; [3]) was 54%, the remaining binding at 0.3 µM (JNK1; [3]) was 96% and the remaining binding at 0.3 µM (LZK; [3]) was 79%. For the same compound, the remaining binding at 0.3 µM (PIK3CA(E545K); [3]) was 75%, the remaining binding at 0.3 µM (SRPK3; [3]) was 96% and the remaining binding at 0.3 µM (TRKA; [3]) was 82%. For the same compound, the remaining binding at 0.3 µM (TRKB; [3]) was 76% and the remaining binding at 0.3 µM (p38-alpha; [3]) was 98%.

For `CC#CC(=O)N1CC[C@@H](n2c(=O)n(-c3ccc(Oc4ccccc4)cc3)c3c(N)ncnc32)C1` [Tirabrutinib], the remaining binding at 0.3 µM (AURKC; [4]) was 65%, the remaining binding at 0.3 µM (CSNK1G3; [4]) was 99% and the remaining binding at 0.3 µM (FGFR3; [4]) was 92%. The remaining binding at 0.3 µM (JNK1; [4]) was 83%, the remaining binding at 0.3 µM (KIT(D816V); [4]) was 93% and the remaining binding at 0.3 µM (LZK; [4]) was 63%. The remaining binding at 0.3 µM (PIK3CA(E545K); [4]) was 78%, the remaining binding at 0.3 µM [1, 4] was 93% and the remaining binding at 0.3 µM (TRKA; [4]) was 83%. It also gave a remaining binding at 0.3 µM (TRKB; [4]) of 79% and a remaining binding at 0.3 µM (p38-alpha; [4]) of 92%.

`C=CC(=O)N1CCC([C@@H]2CCNc3c(C(N)=O)c(-c4ccc(Oc5ccccc5)cc4)nn32)CC1` [Zanubrutinib] gave a remaining binding at 0.3 µM (AURKC; [5]) of 97%, a remaining binding at 0.3 µM (CSNK1G3; [5]) of 90% and a remaining binding at 0.3 µM (FGFR3; [5]) of 93%. The remaining binding at 0.3 µM (JNK1; [5]) was 100%, the remaining binding at 0.3 µM (KIT(D816V); [5]) was 98% and the remaining binding at 0.3 µM (LZK; [5]) was 93%. The remaining binding at 0.3 µM [1, 5] was 82%, the remaining binding at 0.3 µM (SRPK3; [5]) was 100% and the remaining binding at 0.3 µM (TRKA; [5]) was 99%. For the same compound, the remaining binding at 0.3 µM (TRKB; [5]) was 94% and the remaining binding at 0.3 µM (p38-alpha; [5]) was 97%.
